Assay [1] deals with primary human chondrocyte pellet cultures. The experiment in a line: Chondrogenesis activity assay in primary human chondrocyte pellet cultures (proteoglycan (aggrecan) induction, Blyscan assay). The format is cell-based. To be noted: for EC50: 336 h, proteoglycan (aggrecan) induction, primary human chondrocyte pellets, 2 weeks culture; for Emax: Homo sapiens, Chondrocyte, maximum percent proteoglycan (aggrecan) induction relative to the internal reference compound at 10 μM. How it is done:
B) Chondrogenesis Activity Assay in Primary Human Chondrocyte Pellet Cultures
In this assay human articular chondrocytes are harvested by enzymatic digestion from articular cartilage and passaged several times to dedifferentiate the chondrocytes and to propagate the cells. Cells are cultured as cell pellets in the presence of the compounds of the invention over 2 weeks, and the chondrogenic differentiation is quantified by the production of the chondrogenic marker aggrecan (proteoglycan).
In detail, primary chondrocytes were harvested by enzymatic digestion from cartilage of osteoarthritis patients undergoing knee joint replacement surgery, and cultured in vitro. Cells were passaged one or two times and aliquots were cryopreserved. To initiate chondrogenesis experiments, cell aliquots were thawn, cultured in Chondrocyte Growth Medium (CGM, Lonza, #CC-3216) and passaged twice to further propagate and dedifferentiate cells. Pellet cultures were initiated by seeding 2.5×10E5 cells per well into a 96-well deep well plate in 600 μl chondrocyte differentiation medium consisting of Dulbecco's Modified Eagle Medium (DMEM, Invitrogen, #41966), 1×ITS-solution (Insulin/Transferrin/sodium selenite; 100× solution: Invitrogen, #51500056), 5 μg/mL linoleic acid (Sigma, #L1012-1G), 1× nonessential amino acids (100× solution: Invitrogen, #11140); 10 nM Dexamethasone, 2 ng/ml TGF-β1 (transforming growth factor β1) and 10 μg/ml ascorbic acid. Cells were spun to pellets by centrifugation (10 min, 400×g). Test compounds dissolved in DMSO were added to yield increasing compound concentrations, typically from 40 nM to 10 μM, and a final DMSO concentration of 0.1%, and the cell pellets cultured at 37° C., and 5% CO2 for 2 weeks. On each 96-well plate, control wells containing no test compound but the same concentration of DMSO, i.e. untreated cells, were included and used as reference for the determination of the effect of the test compounds on the cells, and wells containing an internal reference compound at a concentration of 10 μM were included and used as positive control and for standardizing the results. Chondrocyte differentiation medium and the compounds were exchanged twice weekly until harvest of the pellets.
For harvest of the pellets, medium was removed and the pellet was homogenized by enzymatic digestion. 100 μl of protease solution containing 0.4 mg/ml papain, 50 mM sodium phosphate, 4 mM EDTA and 0.48 mg/ml L-cysteine was added to the pellet in each well of a 96-well plate, the plate was sealed with a plate sealer foil (SILVERseal, Greiner Bio-One) and incubated for 4 to 6 hours at 65° C. with agitation.
The concentration of proteoglycan (aggrecan) was determined by quantification of the sulfated glycosaminoglycan side chains of aggrecan using the Blyscan assay (Kit from Biocolor). Aliquots of the papain-digest were transferred to 400 μl of Blyscan dye solution and incubated at room temperature for 45 min with agitation (1200 rpm). The mixture was centrifuged at 3760×g for 45 min, the supernatant was discarded, and the stained pellet was redissolved in 400 μl of Blyscan dissociation reagent by rotation until the precipitate completely resolved. Optical density was measured at 656 nm using a Tecan Saphire2 instrument, and the amount of proteoglycan determined against a standard curve with chondroitin-4-sulfate.
Induction of proteoglycan (aggrecan) was calculated for each compound concentration relative to the control (untreated cells, i.e. no test compound added), and an EC50 value (effective concentration 50 (in μM (micromollliter)), i.e. the compound concentration at which the effect of the compound on proteoglycan (aggrecan) induction reaches 50% of the maximum induction) was calculated using a sigmoidal signal fit procedure. […]

The subject of assay [2] is ATDC5 cells. The experiment in a line: Chondrogenesis activity assay in ATDC5 cells (collagen type II induction, immunofluorescence). The class given is cell-based, mouse. The conditions noted are these: Mus musculus; for EC50: collagen type II induction in ATDC5 cells, concentration reaching 50% of maximum induction; for Emax: maximum percent induction of collagen type II relative to internal reference compound at 10 μM, ATDC5 cells. The essentials:
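Mouse ATDC5 cells in insulin (10 μg/ml)-containing DMEM/F12 differentiation medium with 5% FCS were exposed to compound, typically 40 nM–10 μM at 0.1% DMSO, for 4 days at 37 °C. Intracellular collagen type II was quantified by Alexa Fluor 488 immunostaining with high-content imaging, relative to DMSO and a 10 μM reference compound.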

Here are results for 20 molecules from patent publication US12275733B2, “Substituted pyrido[3,4-b]indoles for the treatment of cartilage disorders” (Sanofi, priority 2016, dated 2025).

Usually EC50 stands for the concentration giving half of the maximal effect. Read a low EC50 as higher potency in that assay. In general, Emax refers to the size of the effect at its maximum, as opposed to the concentration needed.

Consider `COc1ccc(-c2cc(Cl)c(C)c3c2[nH]c2c(C)nccc23)cc1` [Example 27, 6-Chloro-8-(4-methoxy-phenyl)-1,5-dimethyl-9H-pyrido[3,4-b]indole], for which, in assay [1], the midpoint of the response, the EC50, lay at 3.5 µM and the Emax is more than 200%. In assay [2], this molecule came in with an EC50 of 0.097 µM and an Emax of more than 80%.
For `Cc1nccc2c1[nH]c1c(-c3ccc(CNC4CCCC4)cc3)cc(Cl)cc12` [Example 29, [4-(6-Chloro-1-methyl-9H-pyrido[3,4-b]indol-8-yl)-benzyl]-cyclopentyl-amine], in assay [1], the EC50 came out at 1.5 µM and the Emax was in the range of 100 to 200%. Further, in assay [2], the EC50 is more than 1.1 µM and the maximal effect (Emax) was less than 20%.
On to `COc1ccc(-c2cc(C#N)cc3c2[nH]c2c(C)nccc23)cc1` [Example 33, 8-(4-Methoxy-phenyl)-1-methyl-9H-pyrido[3,4-b]indole-6-carbonitrile], for which, in assay [1], the response was half-maximal at 0.83 µM (EC50) and the Emax lay within 100 to 200%. In assay [2], it took 0.12 µM to reach a half-maximal effect (EC50) and the Emax was more than 80%.
In the case of `Cc1nccc2c1[nH]c1c(-c3ccc(OCc4ccc5ccccc5n4)cc3)cc(Cl)cc12` [Example 34, 6-Chloro-1-methyl-8-[4-(quinolin-2-ylmethoxy)-phenyl]-9H-pyrido[3,4-b]indole], in assay [1], the EC50 came to 3.8 µM and the Emax is more than 200%. In assay [2], this molecule returned an EC50 of more than 1.1 µM and an Emax of 20 to 50%.
For `Cc1nccc2c1[nH]c1c(-c3cccc(Oc4ncc(Br)cn4)c3)cc(Cl)cc12` [Example 37, 8-[3-(5-Bromo-pyrimidin-2-yloxy)-phenyl]-6-chloro-1-methyl-9H-pyrido[3,4-b]indole], in that order: 4.3 µM, 100 to 200%, more than 3.3 µM and 20 to 50%.
For `Cc1nccc2c1[nH]c1c(-c3ccc(OCc4nccn4C)cc3)cc(Cl)cc12` [Example 39, 6-Chloro-1-methyl-8-[4-(1-methyl-1H-imidazol-2-ylmethoxy)-phenyl]-9H-pyrido[3,4-b]indole], in that order: 3.7 µM, more than 200%, 0.17 µM and more than 80%.
Consider `Cc1nccc2c1[nH]c1c(-c3ccc(OCCn4cccn4)cc3)cc(Cl)c(C)c12` [Example 45], for which the values for the EC50 in assay [1] and in assay [2] were 0.22 µM and 0.13 µM, respectively. The Emax was 40 to 100% in assay [1] and more than 80% in assay [2].
For `Clc1cc(-c2ccc(Cl)nc2Cl)c2c(c1)c1ccncc1n2CC1CC1` [Example 46, 6-Chloro-9-cyclopropylmethyl-8-(2,6-dichloro-pyridin-3-yl)-pyrido[3,4-b]indole], in that order: 1 µM, 1.4 µM, 100 to 200% and more than 80%.
In the same order, the values of `CCn1c2cnccc2c2cc(Cl)cc(-c3ccc(Cl)nc3Cl)c21` [Example 55, 6-Chloro-8-(2,6-dichloro-pyridin-3-yl)-9-ethyl-9H-pyrido[3,4-b]indole] are 0.95 µM, 0.65 µM, 100 to 200% and more than 80%.
In the case of `Cc1nccc2c1[nH]c1c(-c3cnccc3Cl)cc(Cl)cc12` [Example 97, 6-Chloro-8-(4-chloro-pyridin-3-yl)-1-methyl-9H-pyrido[3,4-b]indole], the results for the EC50 in assay [1] and in assay [2] were 5.1 µM and more than 1.1 µM, respectively. For the same molecule, the Emax was more than 200% in assay [1] and less than 20% in assay [2].
`CCn1c2c(-c3cnn(Cc4cccnc4)c3)cc(Cl)cc2c2ccnc(C)c21` [Example 116, 6-Chloro-9-ethyl-1-methyl-8-(1-pyridin-3-ylmethyl-1H-pyrazol-4-yl)-9H-pyrido[3,4-b]indole]: the EC50 in assay [1] was 1.3 µM; in assay [2], 0.39 µM. In addition, the figures for the Emax in assay [1] and in assay [2] were 100 to 200% and more than 80%, respectively.
For `COC(=O)c1cc2c([nH]c3c(-c4ccc(Cl)nc4Cl)cc(Cl)cc32)c(C)n1` [Example 117, 6-Chloro-8-(2,6-dichloro-pyridin-3-yl)-1-methyl-9H-pyrido[3,4-b]indole-3-carboxylic acid methyl ester], the EC50 in assay [1] is 27 µM; in assay [2] it was more than 10 µM. In addition, the results for the Emax in assay [1] and in assay [2] were less than 40% and less than 20%, respectively.
For `Cc1nccc2c1[nH]c1c(-c3ccc(N4CCN(C)CC4)nc3)cc(Cl)cc12` [Example 118, 6-Chloro-1-methyl-8-[6-(4-methyl-piperazin-1-yl)-pyridin-3-yl]-9H-pyrido[3,4-b]indole], in that order: 1.3 µM, more than 1.1 µM, 100 to 200% and 20 to 50%.
For `Cc1nccc2c1[nH]c1c(-c3cccnc3OCc3ccccc3)cc(Cl)cc12` [Example 119, 8-(2-Benzyloxy-pyridin-3-yl)-6-chloro-1-methyl-9H-pyrido[3,4-b]indole], in that order: 21 µM, more than 3.3 µM, 40 to 100% and less than 20%.
For `COc1nc(Cl)ccc1-c1cc(Cl)cc2c1[nH]c1c(C)nccc12` [Example 122, 6-Chloro-8-(6-chloro-2-methoxy-pyridin-3-yl)-1-methyl-9H-pyrido[3,4-b]indole], in that order: 3.6 µM, more than 3.3 µM, 100 to 200% and 20 to 50%.
For `COc1ccc(-c2cc(Cl)cc3c2[nH]c2c(C)nccc23)cc1` [Example 149, 6-Chloro-8-(4-methoxy-phenyl)-1-methyl-9H-pyrido[3,4-b]indole], in assay [1], the EC50 worked out at 1.1 µM and the Emax lay in the range of 100 to 200%. In assay [2], the response was half-maximal at 0.33 µM (EC50) and the Emax is more than 80%.
With `FC(F)(F)Cn1c2cnccc2c2cc(Cl)cc(-c3cnn(-c4c(Cl)cccc4Cl)c3)c21` [Example 167, 6-Chloro-8-[1-(2,6-dichloro-phenyl)-1H-pyrazol-4-yl]-9-(2,2,2-trifluoro-ethyl)-9H-pyrido[3,4-b]indole], in assay [1], the EC50 stood at 13 µM and the Emax is less than 40%. In assay [2], this molecule yielded an EC50 of more than 10 µM and an Emax of 20 to 50%.
Take `Cc1ncc(-c2cc(Cl)cc3c4ccncc4n(CC(F)(F)F)c23)s1` [Example 171, 6-Chloro-8-(2-methyl-thiazol-5-yl)-9-(2,2,2-trifluoro-ethyl)-9H-pyrido[3,4-b]indole]: the EC50 in assay [1] is 4 µM; in assay [2], 1.9 µM. Also, the Emax in assay [1] is more than 200%; in assay [2], more than 80%.
In the same order, the values of `Cc1nccc2c1[nH]c1c(-c3ccc4c(c3)CCCO4)cc(Cl)cc12` [Example 184, 6-Chloro-8-chroman-6-yl-1-methyl-9H-pyrido[3,4-b]indole] are 1.9 µM, 3 µM, 40 to 100% and 50 to 80%.
For `Cc1nccc2c1[nH]c1c(-c3ccc(OCCn4ccnc4)cc3)cc(Cl)cc12` [Example 194, 6-Chloro-8-[4-(2-imidazol-1-yl-ethoxy)-phenyl]-1-methyl-9H-pyrido[3,4-b]indole], in that order: 0.83 µM, 0.14 µM, 100 to 200% and more than 80%.
